In US20190175557A1, “COMPOUNDS USEFUL FOR DECREASING INTERFERON LEVEL” (priority 2016, published 2019):
Like-named read-outs stand apart in the source and are kept apart here.

Key:
HIV-stimulated pDC [1] = test: Activation markers and cytokine mRNA in HIV-stimulated pDC (RT-qPCR, flow cytometry); format: cell-based, human
HIV-stimulated pDC [2] = test: IFN-α / type I IFN production by HIV-stimulated purified pDC (ELISA); format: cell-based, human
pDC = test: Cytotoxicity of compounds on cultured pDC
[3] = test system: human Flu-activated primary PBMC; test: cells; format: cell-based
[4] = test system: 129S8 mice infected with Influenza A virus strain X31 (H3N2); conditions: mouse, in vivo
H4R = H4R (Homo sapiens, UniProt Q9H3N8); format: cell-based; conditions: H4R siRNA, human primary pDC
flu-exposed human PBMC = format: cell-based
CXCR4 [5] = target: T1, CXCR4 (Homo sapiens, UniProt P61073)
CXCR4 [6] = target: T1, CXCR4; conditions: Jurkat cells, 1 mM, 4° C. for 30 min
[7] = test system: collagen-induced arthritis in DBA1/J mice; test: Therapeutic collagen-induced arthritis model in DBA1/J mice; format: in vivo, mouse; conditions: for inhibition of disease severity: Day 28-42, at termination (Day 42); for average AI (Arthritic Index): maximum AI=16
Protocol: 80 DBA1/J mice (male, 7-8 weeks) was received and placed in quarantine for 3 days with daily inspections. Ear tag mice for individual identification.
Individual mouse weights were recorded. Hind paw thickness were recorded by digital caliper. 80 mice subcutaneous were injected with collagen/CFA emulsion (0.05 ml/mouse; 100 μg/mouse collagens in CFA) using a 1 ml syringe fitted with a 25G needle. Mice returned to cages.
80 mice were boosted with collagen/ICFA emulsion. Then their individual weights were recorded.
Mice were scored for signs of arthritis:
7) Calculate Arthritic Index (AI) by addition of individual paw scores and record.
Mice with an AI score within a range of 2-6 were selected for assignment to groups for therapeutic dosing as in Table 4.
Begin intraperitoneal (IP) dosing once daily (QD) according to Table 4.
The compounds clobenpropit (CB) and IT1t were tested. CB and IT1t were stored at 4° C. […] These compounds were doses 7 days per week (Saturday and Sunday included) daily for 14 days.
Mice were weighed, scored for signs or arthritis, and hind paw thickness is measured by digital caliper three-times weekly (Monday, Wednesday and Friday). Any adverse reactions to treatment were recorded.
Termination: AI score were recorded for each limb. The paw thickness of the hind limbs is measured with digital caliper. Mice were anesthetized and exsanguinated into pre-chilled EDTA-tubes.
2) Plasma was assayed by ELISA for IL-1β, IL-6, TRAIL. Then, all limbs were collected.

[8] = test system: NK cells activated by K562 cells; test: IFN-γ, TNF-α and CD107a expression by NK cells activated by K562 cells (flow cytometry); format: cell-based; conditions: treated 1 hour, then activated by K562 cells
[9] = test system: pristane-induced SLE in Balb/c mice; test: Pristane-induced systemic lupus erythematosus (SLE) model in Balb/c mice; format: in vivo, mouse; conditions: 3, 10, 30 mg/kg IP QD
Protocol: Receive and quarantine (SOP 560) 70 female Balb/C (20-25 g) mice and house in filter-topped cages supplied with autoclaved bedding.
The animals are weighed, ear tagged for individual identification and randomly assigned to 8 treatment groups of 8 animals each and two groups of 3 animals (for pre-tolerance at 30 mg/kg of survival).
The test items compounds clobenpropit (CB) and IT1t are stored at 4° C.
Mouse weights are recorded twice a week, and daily observations for clinical signs.
Collected sera are stored at −80° C. for measurements of autoantibody on weeks 4, 8 and 10. (Predose will kept at −80° C. for potential use). Anti-dsDNA level is a standard screening readout for identifying efficacy of test compounds in a SLE model.
Measurements: weeks 4, 8, 10: (1) autoantibody (anti-dsDNA), collagen and cytokines TNFα, IL-6 and TRAIL by ELISA and (2) ANA antibody by IFA.

[10] = Solubility of test compounds
[11] = test system: HIV or LPS stimulated monocytes; test: IFN-γ mRNA in monocytes stimulated with HIV or LPS (RT-qPCR); format: cell-based; conditions: RT-qPCR normalized to RPL13A
Protocol: Data shown are representative of two independent experiments.
Monocytes were pre-incubated with clobenpropit (CB), IT1t or chloroquine before being activated by HIV and LPS. IFN-γ levels were measured by RT-qPCR and normalized to RPL13A mRNA expression.

CXCR4 [12] = target: T1, CXCR4; test: CXCR4 internalization and co-localization in pDC (microscopy); format: cell-based; conditions: confocal microscopy
Protocol: Cells were then incubated with anti-CXCR4 antibody (Biolegend, San Diego, Calif.) in saturation buffer PBS-BSA 0.5% for membrane staining or in permeabilizing buffer containing 1% saponin with monoclonal antibody anti-TRAIL (Biolegend, San Diego, Calif., USA). […] Nucleus was stained using DAPI (Molecular Probes, Paisley, UK). Slides were mounted with Fluoromount-G (eBioscience, CA, USA) and scanned with a Nikon Eclipse 90i Upright microscope (Nikon Instruments Europe, Badhoevedorp, The Netherlands) using a 100× Plan Apo VC piezo objective (NA 1.4) and Chroma bloc filters (ET-DAPI, ET-GFP) and were subsequently deconvoluted with a Meinel algorithm and 8 iterations and analyzed using Metamorph® (MDS Analytical Technologies, Winnersh, UK). TRAIL/DAPI/Overlay/Confocal plane: Representative 2D focal plan. Overlay with bright: Bright. […]
In other cases, cells were cultured overnight in media alone then were washed in ice-cold PBS-BSA 0.2% and stained with CXCR4 antibody (R&D Systems) for 1 hour at 4° C. […] Data are expressed as the mean percentage ±SEM mean channel fluorescence intensity (MFI) values for residual surface expression and intracellular staining. […]
7 pictures were taken from each slide for each Z section framing the nucleus. Quantification of the colocalization in the cytoplasm of purified pDC using Mander's Coefficient was obtained after analyze by JACoP pluging in ImageJ. […]

HIV-stimulated pDC [13] = test: TRAIL relocalization to the membrane of HIV-stimulated pDC (3D microscopy); format: cell-based, human
Protocol: Cells were then incubated with anti-CXCR4 antibody (Biolegend, San Diego, Calif.) in saturation buffer PBS-BSA 0.5% for membrane staining or in permeabilizing buffer containing 1% saponin with monoclonal antibody anti-TRAIL (Biolegend, San Diego, Calif., USA). […] Nucleus was stained using DAPI (Molecular Probes, Paisley, UK). Slides were mounted with Fluoromount-G (eBioscience, CA, USA) and scanned with a Nikon Eclipse 90i Upright microscope (Nikon Instruments Europe, Badhoevedorp, The Netherlands) using a 100× Plan Apo VC piezo objective (NA 1.4) and Chroma bloc filters (ET-DAPI, ET-GFP) and were subsequently deconvoluted with a Meinel algorithm and 8 iterations and analyzed using Metamorph® (MDS Analytical Technologies, Winnersh, UK). TRAIL/DAPI/Overlay/Confocal plane: Representative 2D focal plan. Overlay with bright: Bright. Reconvolution overlays: 2D projections of the maximum intensity pixels along the Z-axis.
7 pictures were taken from each slide for each Z section framing the nucleus. Quantification of the colocalization in the cytoplasm of purified pDC using Mander's Coefficient was obtained after analyze by JACoP pluging in ImageJ.

[14] = 3 mg/kg IP once daily, at termination (Day 42)
[15] = 10 mg/kg IP once daily, at termination
[16] = 30 mg/kg IP once daily, at termination

T1 sequence (P61073 whole entry): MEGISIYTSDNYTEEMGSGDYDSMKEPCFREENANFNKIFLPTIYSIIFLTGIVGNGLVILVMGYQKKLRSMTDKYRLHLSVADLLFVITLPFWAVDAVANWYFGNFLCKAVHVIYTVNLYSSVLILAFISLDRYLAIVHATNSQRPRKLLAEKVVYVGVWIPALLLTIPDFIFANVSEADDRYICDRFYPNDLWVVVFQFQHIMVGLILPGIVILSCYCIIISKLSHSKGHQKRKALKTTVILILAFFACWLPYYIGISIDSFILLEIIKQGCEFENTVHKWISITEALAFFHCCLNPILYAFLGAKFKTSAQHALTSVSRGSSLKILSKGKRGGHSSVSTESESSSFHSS
Sequence of H4R (Q9H3N8 whole entry): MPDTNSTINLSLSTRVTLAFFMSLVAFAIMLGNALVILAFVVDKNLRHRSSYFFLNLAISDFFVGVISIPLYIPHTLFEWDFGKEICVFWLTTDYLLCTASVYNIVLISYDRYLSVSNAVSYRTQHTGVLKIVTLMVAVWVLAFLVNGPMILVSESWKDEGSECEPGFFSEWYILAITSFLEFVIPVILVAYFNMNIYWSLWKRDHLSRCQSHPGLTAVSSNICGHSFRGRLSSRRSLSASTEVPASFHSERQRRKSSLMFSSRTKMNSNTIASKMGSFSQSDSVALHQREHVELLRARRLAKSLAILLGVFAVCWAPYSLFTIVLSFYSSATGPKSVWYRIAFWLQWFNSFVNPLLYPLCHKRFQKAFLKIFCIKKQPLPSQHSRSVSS

Q: Which results are given for CXCL12: CXCR4 natural ligand?
A: IFN-α/β mRNA expressions by HIV stimulated pDC (HIV-stimulated pDC [1]; 62.5 nM, pre-incubation 15 min, 30 min, 60 min): did not reduce; type I IFN mRNA expression by HIV stimulated pDC (HIV-stimulated pDC [1]; 10 μM): did not inhibit

Q: What does the source list for `NCCc1c[nH]cn1` [Histamine]?
A: inhibitory effect on pDC activation / IFN-α production by HIV-1 (HIV-stimulated pDC [2]; purified pDC, 10 μM): active; cytotoxicity on purified pDC (pDC; 10 μM): without obvious toxicity; EC50 [3]: 1.4 ± 1 µM; IFN-α, IFN-β and IFN-λ2/3 protein production in bronchioalveolar lavage (BAL) fluid [4]: a trend towards IFN reduction that was not statistically significant; Therapeutic index (Ratio TC50/EC50) (human primary PBMC): <1500; TC50 (human primary PBMC; human): <2000 µM; effect of H4R knock down on inhibitory activity on IFN-α, IFN-β and TRAIL productions by HIV-stimulated pDC (H4R): did not block; IFN-α/β and IFN-λ2/3 mRNA levels (flu-exposed human PBMC): significantly reduced; effect of CXCR4 gene silencing on the inhibitory effect on type I IFN and TRAIL (CXCR4 [5]; pDC stimulated by CXCR4-tropic HIV-1): suppressed; binding of the CXCR4 antibody 12G5 on T cells (CXCR4 [6]): inhibited

Q: For `C[C@]12C=CC(=O)C=C1CC[C@@H]1[C@@H]2[C@@H](O)C[C@@]2(C)[C@H]1CC[C@]2(O)C(=O)CO` [prednisolone], which “reduction in terminal plasma concentration of IL-1β” value (shortened to “reduction … of IL-1β”) ([7]; 3 mg/kg IP once daily) is on record?
A: 62%

Q: What about the “reduction in terminal plasma concentration of IL-6” value (“reduction … of IL-6” below) ([7]; 3 mg/kg IP once daily) of the same molecule?
A: 79%

Q: And the “reduction in terminal plasma concentration of TRAIL” value (“reduction … of TRAIL” for short) ([7]; 3 mg/kg IP once daily)?
A: 72%

Q: What about the “inhibition of disease severity” value ([7]; 3 mg/kg IP once daily) of the same molecule?
A: 82%

Q: And the “average AI (Arthritic Index)” value [7, 14]?
A: 2.4

Q: Which CC50 (in vitro; human) does the source give for `CC1(C)CN2C(CS/C(=N\C3CCCCC3)NC3CCCCC3)=CSC2=N1` [IT1t] here?
A: 238 ± 21 µM

Q: And the “IFN-γ, TNF-α and CD107a expression by NK cells” value [8]?
A: decrease

Q: What about the “toxicity at the efficient concentrations” value (pDC) of the same molecule?
A: not toxic

Q: What about the “toxicity at higher concentrations” value (pDC; diluted in DMSO) of the same molecule?
A: some toxicity

Q: And the EC50 ([3]; read-out: EC50)?
A: 7.1 ± 1 µM

Q: What about the “symptoms of pristane-Induced Systemic Lupus Erythematosus” value [9] of the same molecule?
A: reduce symptoms

Q: What about the ds-DNA level ([9]; compared to group 1 (vehicle)) of the same molecule?
A: inhibition

Q: What about the “Therapeutic index (Ratio TC50/EC50)” value (human primary PBMC) of the same molecule?
A: 33.5

Q: And the solubility ([10]; PBS, aqueous buffer)?
A: > 50 mg/mL

Q: And the solubility ([10]; water)?
A: > 50 mg/mL

Q: What about the “IFN-γ expression by HIV or LPS stimulated monocytes” value [11] of the same molecule?
A: inhibit

Q: What about the “reduction … of IL-1β” value ([7]; 3 mg/kg IP once daily) of the same molecule?
A: 49%

Q: What about the “reduction … of TRAIL” value ([7]; 3 mg/kg IP once daily) of the same molecule?
A: 62%

Q: What about the “inhibition of disease severity” value ([7]; 3 mg/kg IP once daily) of the same molecule?
A: no amelioratory effect

Q: And the “average AI (Arthritic Index)” value [7, 14]?
A: 13.1

Q: What about the “reduction … of IL-1β” value ([7]; 10 mg/kg IP once daily) of the same molecule?
A: 53%

Q: What about the “reduction … of IL-6” value ([7]; 10 mg/kg IP once daily) of the same molecule?
A: 30%

Q: And the “reduction … of TRAIL” value ([7]; 10 mg/kg IP once daily)?
A: 46%

Q: What about the “reduction in disease severity” value [7, 15] of the same molecule?
A: 40%

Q: And the “average AI (Arthritic Index)” value [7, 15]?
A: 7.9

Q: And the “reduction … of IL-1β” value ([7]; 30 mg/kg IP once daily)?
A: 69%

Q: And the “reduction … of IL-6” value ([7]; 30 mg/kg IP once daily)?
A: 66%

Q: What about the “reduction … of TRAIL” value ([7]; 30 mg/kg IP once daily) of the same molecule?
A: 51%

Q: What about the “reduction in disease severity” value [7, 16] of the same molecule?
A: 63%

Q: And the “average AI (Arthritic Index)” value [7, 16]?
A: 4.9

Q: What about the “disease progression over the dose range” value ([7]; 3, 10 and 30 mg/kg daily intraperitoneal injection) of the same molecule?
A: dose-dependent inhibition

Q: What about the “type I IFN reduction in CXCR4 siRNA-treated cells” value (CXCR4 [5]; pDC stimulated with HIV X4 or HIV R5, active with control siRNA) of the same molecule?
A: lost its biological activity

Q: And the “effect on cytokine production of activated pDC compared with CB” value (HIV-stimulated pDC [1])?
A: stronger effect

Q: What about the “IFN-α, IFN-β and TRAIL expression by HIV-stimulated pDC” value (HIV-stimulated pDC [1]; 1 hour pre-culture, HIV X4) of the same molecule?
A: inhibited

Q: What does the source list for `NCCc1cc(=O)oc2c3c4c(cc12)CCCN4CCC3` [FFN-511, FFN511]?
A: IFN type I production by HIV-stimulated pDC (HIV-stimulated pDC [2]; 50 μM): strongly reduced; cytotoxic effect on pDC (pDC; 50 μM): without any obvious cytotoxic effect; co-localization with CXCR4 in pDC (CXCR4 [12]): strong degree of co-localization; TRAIL localization to the cell membrane in HIV-stimulated pDC (HIV-stimulated pDC [13]): significantly inhibited; iNOS or IL-15 gene expression (HIV-stimulated pDC [1]; HIV-1-stimulated pDC, RT-qPCR): neither CB nor FFN-511 affected; transcription of virus-induced genes (TRAIL, IFNs, IL6, IL8, IL10, CXCL10, ISG56) induced in pDC by HIV-1 (HIV-stimulated pDC [1]; RT-qPCR profiling, normalized to RPL13A): dramatically inhibited

Q: For `c1cc(CN2CCCNCCNCCCNCC2)ccc1CN1CCCNCCNCCCNCC1` [AMD3100], which “type I IFN and TRAIL expression by HIV-activated pDC, compound alone” value (HIV-stimulated pDC [1]) is on record?
A: did not block

Q: And the “effect on biological activities of histamine and CB on HIV activated-pDC” value (HIV-stimulated pDC [1]; pre-incubation 1 hour (20 μM) before histamine or CB)?
A: drastically abolished

Q: With `NCCCNCCCCNCCCN` [spermin, spermine] as the molecule, how does the “IFN-γ, TNF-α and CD107a expression by NK cells” value [8] read?
A: decrease

Q: With `NCCc1c[nH]c2ccc(O)cc12` [Serotonin, serotonin] as the molecule, how does the CC50 (in vitro) read?
A: 1500 ± 54 µM

Q: For `CCN(CC)CCCC(C)Nc1ccnc2cc(Cl)ccc12` (stereo not drawn) [chloroquine], which “IFN-γ expression by HIV or LPS stimulated monocytes” value [11] is on record?
A: inhibit
